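Five compound concentrations were applied to cells in 96-well plates for 48 hours; endpoints were derived by simple linear interpolation of the resulting dose-response curve. The concentration for 50% growth inhibition is given as GI50. At the TGI there is no net growth.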
Experiments:
Experiment in all cases: growth of human tumour cells (NCI), 48 h
786-0 renal = tested on: 786-0 renal
A498 renal = tested on: A498 renal
A549 NSCLC = tested on: A549 NSCLC
ACHN renal = tested on: ACHN renal
BT-549 breast = tested on: BT-549 breast
CAKI-1 renal = tested on: CAKI-1 renal
CCRF-CEM leukemia = tested on: CCRF-CEM leukemia
COLO 205 colon = tested on: COLO 205 colon
DU-145 prostate = tested on: DU-145 prostate
EKVX NSCLC = tested on: EKVX NSCLC
HCC-2998 colon = tested on: HCC-2998 colon
HCT-116 colon = tested on: HCT-116 colon
HCT-15 colon = tested on: HCT-15 colon
HL-60(TB) leukemia = tested on: HL-60(TB) leukemia
HOP-62 NSCLC = tested on: HOP-62 NSCLC
HOP-92 NSCLC = tested on: HOP-92 NSCLC
HS 578T breast = tested on: HS 578T breast
HT29 colon = tested on: HT29 colon
IGROV1 ovarian = tested on: IGROV1 ovarian
K-562 leukemia = tested on: K-562 leukemia
KM12 colon = tested on: KM12 colon
LOX IMVI melanoma = tested on: LOX IMVI melanoma
M14 melanoma = tested on: M14 melanoma
MALME-3M melanoma = tested on: MALME-3M melanoma
MCF7 breast = tested on: MCF7 breast
MDA-MB-231 breast = tested on: MDA-MB-231 breast
MDA-MB-435 = tested on: MDA-MB-435
MDA-MB-468 breast = tested on: MDA-MB-468 breast
MOLT-4 leukemia = tested on: MOLT-4 leukemia
NCI-H226 lung = tested on: NCI-H226 lung
NCI-H23 lung = tested on: NCI-H23 lung
NCI-H460 lung = tested on: NCI-H460 lung
NCI-H522 lung = tested on: NCI-H522 lung
NCI/ADR-RES ovarian = tested on: NCI/ADR-RES ovarian
OVCAR-3 ovarian = tested on: OVCAR-3 ovarian
OVCAR-4 ovarian = tested on: OVCAR-4 ovarian
OVCAR-5 ovarian = tested on: OVCAR-5 ovarian
OVCAR-8 ovarian = tested on: OVCAR-8 ovarian
PC-3 prostate = tested on: PC-3 prostate
RPMI-8226 leukemia = tested on: RPMI-8226 leukemia
RXF 393 renal = tested on: RXF 393 renal
SF-268 CNS = tested on: SF-268 CNS
SF-295 CNS = tested on: SF-295 CNS
SF-539 CNS = tested on: SF-539 CNS
SK-MEL-2 melanoma = tested on: SK-MEL-2 melanoma
SK-MEL-28 melanoma = tested on: SK-MEL-28 melanoma
SK-MEL-5 melanoma = tested on: SK-MEL-5 melanoma
SK-OV-3 ovarian = tested on: SK-OV-3 ovarian
SN12C renal = tested on: SN12C renal
SNB-19 CNS = tested on: SNB-19 CNS
SNB-75 CNS = tested on: SNB-75 CNS
SR leukemia = tested on: SR leukemia
SW-620 colon = tested on: SW-620 colon
T-47D breast = tested on: T-47D breast
TK-10 renal = tested on: TK-10 renal
U251 CNS = tested on: U251 CNS
UACC-257 melanoma = tested on: UACC-257 melanoma
UACC-62 melanoma = tested on: UACC-62 melanoma
UO-31 renal = tested on: UO-31 renal

Question: For O=C(CNc1nc(-c2ccccc2)cs1)Nc1ccc(Cl)cc1[N+](=O)[O-], which GI50 (786-0 renal) is on record?
Answer: 3.75 µM

Question: What about the TGI (786-0 renal) of the same molecule?
Answer: 14.2 µM

Question: What about the GI50 (A498 renal) of the same molecule?
Answer: 7.9 µM

Question: And the TGI (A498 renal)?
Answer: 20.4 µM

Question: What about the GI50 (A549 NSCLC) of the same molecule?
Answer: 3.93 µM

Question: What about the TGI (A549 NSCLC) of the same molecule?
Answer: 14.5 µM

Question: What about the GI50 (ACHN renal) of the same molecule?
Answer: 2.77 µM

Question: What about the TGI (ACHN renal) of the same molecule?
Answer: 10.5 µM

Question: What about the GI50 (BT-549 breast) of the same molecule?
Answer: 2.84 µM

Question: What about the TGI (BT-549 breast) of the same molecule?
Answer: 5.89 µM

Question: What about the GI50 (CAKI-1 renal) of the same molecule?
Answer: 1.85 µM

Question: What about the TGI (CAKI-1 renal) of the same molecule?
Answer: 9.85 µM

Question: What about the GI50 (CCRF-CEM leukemia) of the same molecule?
Answer: 3.29 µM

Question: And the TGI (CCRF-CEM leukemia)?
Answer: > 100 µM

Question: What about the GI50 (COLO 205 colon) of the same molecule?
Answer: 2.61 µM

Question: And the TGI (COLO 205 colon)?
Answer: 5.91 µM

Question: What about the GI50 (DU-145 prostate) of the same molecule?
Answer: 4.78 µM

Question: And the TGI (DU-145 prostate)?
Answer: 18.7 µM

Question: And the GI50 (EKVX NSCLC)?
Answer: 1.82 µM

Question: What about the TGI (EKVX NSCLC) of the same molecule?
Answer: 9.71 µM

Question: What about the GI50 (HCC-2998 colon) of the same molecule?
Answer: 2.71 µM

Question: What about the TGI (HCC-2998 colon) of the same molecule?
Answer: 10.2 µM

Question: What about the GI50 (HCT-116 colon) of the same molecule?
Answer: 2.95 µM

Question: And the TGI (HCT-116 colon)?
Answer: 10.2 µM

Question: What about the GI50 (HCT-15 colon) of the same molecule?
Answer: 1.98 µM

Question: What about the TGI (HCT-15 colon) of the same molecule?
Answer: 4.53 µM

Question: What about the GI50 (HL-60(TB) leukemia) of the same molecule?
Answer: 2.03 µM

Question: What about the TGI (HL-60(TB) leukemia) of the same molecule?
Answer: 6.56 µM

Question: What about the GI50 (HOP-62 NSCLC) of the same molecule?
Answer: 4.23 µM

Question: And the TGI (HOP-62 NSCLC)?
Answer: 17.3 µM

Question: What about the GI50 (HOP-92 NSCLC) of the same molecule?
Answer: 1.99 µM

Question: What about the TGI (HOP-92 NSCLC) of the same molecule?
Answer: 8.19 µM

Question: And the GI50 (HS 578T breast)?
Answer: 2.39 µM

Question: And the TGI (HS 578T breast)?
Answer: 9.58 µM

Question: What about the GI50 (HT29 colon) of the same molecule?
Answer: 3.79 µM

Question: And the TGI (HT29 colon)?
Answer: 14.4 µM

Question: And the GI50 (IGROV1 ovarian)?
Answer: 2.9 µM

Question: What about the TGI (IGROV1 ovarian) of the same molecule?
Answer: 12.1 µM

Question: And the GI50 (K-562 leukemia)?
Answer: 2.49 µM

Question: What about the TGI (K-562 leukemia) of the same molecule?
Answer: > 100 µM

Question: And the GI50 (KM12 colon)?
Answer: 3.36 µM

Question: What about the TGI (KM12 colon) of the same molecule?
Answer: 13 µM

Question: What about the GI50 (LOX IMVI melanoma) of the same molecule?
Answer: 1.32 µM

Question: What about the TGI (LOX IMVI melanoma) of the same molecule?
Answer: 2.88 µM

Question: What about the GI50 (M14 melanoma) of the same molecule?
Answer: 3.4 µM

Question: What about the TGI (M14 melanoma) of the same molecule?
Answer: 12.7 µM

Question: And the GI50 (MALME-3M melanoma)?
Answer: 2.21 µM

Question: And the TGI (MALME-3M melanoma)?
Answer: 5.51 µM

Question: What about the GI50 (MCF7 breast) of the same molecule?
Answer: 2.84 µM

Question: What about the TGI (MCF7 breast) of the same molecule?
Answer: 10.3 µM

Question: And the GI50 (MDA-MB-231 breast)?
Answer: 1.63 µM

Question: And the TGI (MDA-MB-231 breast)?
Answer: 3.54 µM

Question: And the GI50 (MDA-MB-435)?
Answer: 3.25 µM

Question: And the TGI (MDA-MB-435)?
Answer: 9.42 µM

Question: And the GI50 (MDA-MB-468 breast)?
Answer: 2.02 µM

Question: And the TGI (MDA-MB-468 breast)?
Answer: 5.69 µM

Question: And the GI50 (MOLT-4 leukemia)?
Answer: 2.49 µM

Question: And the TGI (MOLT-4 leukemia)?
Answer: 13.9 µM

Question: And the GI50 (NCI-H226 lung)?
Answer: 2.64 µM

Question: What about the TGI (NCI-H226 lung) of the same molecule?
Answer: 13 µM

Question: What about the GI50 (NCI-H23 lung) of the same molecule?
Answer: 3.08 µM

Question: What about the TGI (NCI-H23 lung) of the same molecule?
Answer: 12.6 µM

Question: What about the GI50 (NCI-H460 lung) of the same molecule?
Answer: 4.18 µM

Question: And the TGI (NCI-H460 lung)?
Answer: 17.5 µM

Question: And the GI50 (NCI-H522 lung)?
Answer: 1.8 µM

Question: And the TGI (NCI-H522 lung)?
Answer: 3.95 µM

Question: What about the GI50 (NCI/ADR-RES ovarian) of the same molecule?
Answer: 2.31 µM

Question: What about the TGI (NCI/ADR-RES ovarian) of the same molecule?
Answer: 6.53 µM

Question: What about the GI50 (OVCAR-3 ovarian) of the same molecule?
Answer: 2.36 µM

Question: And the TGI (OVCAR-3 ovarian)?
Answer: 5.72 µM

Question: And the GI50 (OVCAR-4 ovarian)?
Answer: 3.26 µM

Question: What about the TGI (OVCAR-4 ovarian) of the same molecule?
Answer: 13 µM

Question: And the GI50 (OVCAR-5 ovarian)?
Answer: 2.49 µM

Question: What about the TGI (OVCAR-5 ovarian) of the same molecule?
Answer: 8.24 µM

Question: And the GI50 (OVCAR-8 ovarian)?
Answer: 3.25 µM

Question: What about the TGI (OVCAR-8 ovarian) of the same molecule?
Answer: 13.1 µM

Question: What about the GI50 (PC-3 prostate) of the same molecule?
Answer: 2.78 µM

Question: And the TGI (PC-3 prostate)?
Answer: 16.2 µM

Question: And the GI50 (RPMI-8226 leukemia)?
Answer: 2.67 µM

Question: What about the TGI (RPMI-8226 leukemia) of the same molecule?
Answer: > 100 µM

Question: What about the GI50 (RXF 393 renal) of the same molecule?
Answer: 1.99 µM

Question: What about the TGI (RXF 393 renal) of the same molecule?
Answer: 6.5 µM

Question: And the GI50 (SF-268 CNS)?
Answer: 2.1 µM

Question: What about the TGI (SF-268 CNS) of the same molecule?
Answer: 7.08 µM

Question: And the GI50 (SF-295 CNS)?
Answer: 2.71 µM

Question: What about the TGI (SF-295 CNS) of the same molecule?
Answer: 11.1 µM

Question: What about the GI50 (SF-539 CNS) of the same molecule?
Answer: 1.84 µM

Question: And the TGI (SF-539 CNS)?
Answer: 4.05 µM

Question: And the GI50 (SK-MEL-2 melanoma)?
Answer: 3.04 µM

Question: And the TGI (SK-MEL-2 melanoma)?
Answer: 9.74 µM

Question: What about the GI50 (SK-MEL-28 melanoma) of the same molecule?
Answer: 2.9 µM

Question: And the TGI (SK-MEL-28 melanoma)?
Answer: 8.79 µM

Question: What about the GI50 (SK-MEL-5 melanoma) of the same molecule?
Answer: 1.93 µM

Question: What about the TGI (SK-MEL-5 melanoma) of the same molecule?
Answer: 4.26 µM

Question: What about the GI50 (SK-OV-3 ovarian) of the same molecule?
Answer: 4.65 µM

Question: What about the TGI (SK-OV-3 ovarian) of the same molecule?
Answer: 19 µM

Question: What about the GI50 (SN12C renal) of the same molecule?
Answer: 2.81 µM

Question: What about the TGI (SN12C renal) of the same molecule?
Answer: 10.7 µM

Question: What about the GI50 (SNB-19 CNS) of the same molecule?
Answer: 3.78 µM

Question: What about the TGI (SNB-19 CNS) of the same molecule?
Answer: 15 µM

Question: What about the GI50 (SNB-75 CNS) of the same molecule?
Answer: 1.24 µM

Question: What about the TGI (SNB-75 CNS) of the same molecule?
Answer: 7.02 µM

Question: And the GI50 (SR leukemia)?
Answer: 3.75 µM

Question: And the TGI (SR leukemia)?
Answer: > 100 µM

Question: And the GI50 (SW-620 colon)?
Answer: 4.1 µM

Question: And the TGI (SW-620 colon)?
Answer: 14.4 µM

Question: What about the GI50 (T-47D breast) of the same molecule?
Answer: 2.46 µM

Question: And the TGI (T-47D breast)?
Answer: 8.61 µM

Question: And the GI50 (TK-10 renal)?
Answer: 6.12 µM

Question: And the TGI (TK-10 renal)?
Answer: 17.9 µM

Question: And the GI50 (U251 CNS)?
Answer: 2.06 µM

Question: And the TGI (U251 CNS)?
Answer: 6.56 µM

Question: What about the GI50 (UACC-257 melanoma) of the same molecule?
Answer: 5.13 µM

Question: And the TGI (UACC-257 melanoma)?
Answer: 17 µM

Question: And the GI50 (UACC-62 melanoma)?
Answer: 1.33 µM

Question: And the TGI (UACC-62 melanoma)?
Answer: 3.25 µM

Question: And the GI50 (UO-31 renal)?
Answer: 1.62 µM

Question: And the TGI (UO-31 renal)?
Answer: 6.97 µM
